# Reference: patent US10336775B2 (Asceneuron SA, priority 2014, dated 2019)
# Molecular target: His-Tagged hOGA (human O-GlcNAcase) (Homo sapiens (Human), UniProt O60502)
# Experiment: Human O-GlcNAcase enzyme inhibition assay (Example B01)
# Type: biochemical
# Conditions: OGA IC50 (M), OGA enzyme inhibition assay; activity range classes defined in μM
# Chain of His-Tagged hOGA (human O-GlcNAcase) (O60502 whole entry): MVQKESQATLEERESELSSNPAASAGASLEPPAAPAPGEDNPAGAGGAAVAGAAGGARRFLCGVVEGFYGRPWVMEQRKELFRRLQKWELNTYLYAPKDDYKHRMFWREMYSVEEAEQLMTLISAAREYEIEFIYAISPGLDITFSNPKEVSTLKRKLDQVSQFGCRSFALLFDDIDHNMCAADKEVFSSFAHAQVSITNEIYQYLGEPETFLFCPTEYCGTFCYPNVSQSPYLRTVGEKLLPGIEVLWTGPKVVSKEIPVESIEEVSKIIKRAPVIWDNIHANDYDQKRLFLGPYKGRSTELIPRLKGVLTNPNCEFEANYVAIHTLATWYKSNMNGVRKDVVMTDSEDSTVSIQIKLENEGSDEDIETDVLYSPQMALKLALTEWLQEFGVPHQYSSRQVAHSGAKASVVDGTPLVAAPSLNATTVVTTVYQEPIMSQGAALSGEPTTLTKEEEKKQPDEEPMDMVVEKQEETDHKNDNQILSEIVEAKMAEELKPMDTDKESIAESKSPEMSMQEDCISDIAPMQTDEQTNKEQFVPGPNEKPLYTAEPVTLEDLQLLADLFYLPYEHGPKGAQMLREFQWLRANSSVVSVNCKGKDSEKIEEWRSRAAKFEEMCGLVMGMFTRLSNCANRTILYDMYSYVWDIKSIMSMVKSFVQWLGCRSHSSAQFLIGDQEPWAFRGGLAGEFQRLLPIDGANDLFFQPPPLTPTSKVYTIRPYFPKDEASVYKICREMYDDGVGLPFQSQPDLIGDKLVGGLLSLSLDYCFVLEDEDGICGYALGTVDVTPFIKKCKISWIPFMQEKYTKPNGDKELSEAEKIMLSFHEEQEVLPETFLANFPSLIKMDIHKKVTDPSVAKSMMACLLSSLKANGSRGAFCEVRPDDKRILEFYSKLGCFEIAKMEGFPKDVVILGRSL
row,Compound,IC50 [M]
1,"CC(=O)Nc1cnc(N2CCN(C(C)c3ccc4cccnc4c3)CC2)nc1 (racemic) [Example 120, N-(2-(4-(1-(quinolin-7-yl)ethyl)piperazin-1-yl)pyrimidin-5-yl)acetamide]",5e-08 to 2e-07
2,"CC(c1ccc2nccnc2c1)N1CCN(c2nc3cnccc3s2)CC1 (racemic) [Example 140, 2-(4-(1-(quinoxalin-6-yl)ethyl)piperazin-1-yl)thiazolo[4,5-c]pyridine]",2e-07 to 1e-06
3,"Cc1csc(N2CCN(C(C)c3ccc4c(c3)OCO4)CC2)n1 (racemic) [Example 144, 1-[1-(1,3-benzodioxol-5-yl)ethyl]-4-(4-methyl-2-thiazolyl)-piperazine]",2e-07 to 1e-06

# Same assay, conditions: OGA enzyme inhibition assay; activity range classes defined in μM; read-out: OGA IC50
row,IC50 [M],Compound
1,< 5e-08,"CC(=O)Nc1cnc(N2CCN(C(C)c3ccc4sc(C)nc4c3)CC2)nc1 (racemic) [Example 169, N-(2-(4-(1-(2-methylbenzo[d]thiazol-5-yl)ethyl)piperazin-1-yl)pyrimidin-5-yl)acetamide]"
2,< 5e-08,"CC(=O)Nc1nnc(N2CCN(C(C)c3ccc4sc(C)nc4c3)CC2)s1 (racemic) [Example 170, N-(5-(4-(1-(2-methylbenzo[d]thiazol-5-yl)ethyl)piperazin-1-yl)-1,3,4-thiadiazol-2-yl)acetamide]"
3,5e-08 to 2e-07,"CC(c1ccc2nccnc2c1)N1CCN(c2ncc(F)cn2)CC1 (racemic) [Example 172, 6-(1-(4-(5-fluoropyrimidin-2-yl)piperazin-1-yl)ethyl)quinoxaline]"
4,1e-06 to 1e-05,"CC(=O)Nc1cnc(N2CCN(C(C)c3ccc4ncsc4c3)CC2)nc1 (racemic) [Example 174, N-(2-(4-(1-(benzo[d]thiazol-6-yl)ethyl)piperazin-1-yl)pyrimidin-5-yl)acetamide]"
5,2e-07 to 1e-06,"CC(c1ccc2nccnc2c1)N1CCN(c2nc3c(s2)C(=O)NCC3)CC1 (racemic) [Example 178, 2-(4-(1-(quinoxalin-6-yl)ethyl)piperazin-1-yl)-6,7-dihydrothiazolo[5,4-c]pyridin-4(5H)-one]"
6,1e-06 to 1e-05,"CC(=O)Nc1nnc(N2CCN(C(C)c3ccc4ncsc4c3)CC2)s1 (racemic) [Example 179, N-(5-(4-(1-(benzo[d]thiazol-6-yl)ethyl)piperazin-1-yl)-1,3,4-thiadiazol-2-yl)acetamide]"
7,5e-08 to 2e-07,COc1cnc(N2CCN(C(C)c3ccc4nccnc4c3)CC2)nc1 (racemic) [Example 196]
8,5e-08 to 2e-07,COc1nc(N2CCN(C(C)c3ccc4c(c3)OCCO4)CC2)ccc1Br (racemic) [Example 199]
9,5e-08 to 2e-07,COc1cccc(N2CCN(C(C)c3ccc4c(c3)OCCO4)CC2)n1 (racemic) [Example 200]
10,1e-06 to 1e-05,"Cc1cnc2cc(C(C)N3CCN(c4ncccn4)CC3)ccc2c1 (racemic) [Example 201, 3-Methyl-7-(1-(4-(pyrimidin-2-yl)piperazin-1-yl)ethyl)quinoline]"

# Second part, the molecule before the results:
row,Compound,IC50 [M]
1,"CC(=O)Nc1cnc(N2CCN(C(C)c3ccc4scnc4c3)CC2)nc1 (racemic) [Example 116, N-(2-(4-(1-(benzo[d]thiazol-5-yl)ethyl)piperazin-1-yl)pyrimidin-5-yl)acetamide]",< 5e-08
2,CC(=O)Nc1nnc(N2CCN(C(C)c3ccc4c(c3)OC(F)(F)O4)CC2)s1 (racemic) [Example 117],2e-07 to 1e-06
3,CC(=O)Nc1cnc(N2CCN(C(C)c3ccc4c(c3)OC(F)(F)O4)CC2)nc1 (racemic) [Example 118],2e-07 to 1e-06
4,"CC(c1ccc2c(c1)OCO2)N1CCN(c2ncc3ccccc3n2)CC1 (racemic) [Example 119, 2-(4-(1-(benzo[d][1,3]dioxol-5-yl)ethyl)piperazin-1-yl)quinazoline]",5e-08 to 2e-07
5,"CC(=O)Nc1cnc(N2CCN(C(C)c3ccc4nonc4c3)CC2)nc1 (racemic) [Example 121, N-(2-(4-(1-(benzo[c][1,2,5]oxadiazol-5-yl)ethyl)piperazin-1-yl)pyrimidin-5-yl)acetamide]",1e-06 to 1e-05
6,"CC(=O)Nc1cnc(N2CCN(C(C)c3ccc4nsnc4c3)CC2)nc1 (racemic) [Example 122, N-(2-(4-(1-(benzo[c][1,2,5]thiadiazol-5-yl)ethyl)piperazin-1-yl)pyrimidin-5-yl)acetamide]",< 5e-08
7,"CC(=O)Nc1nnc(N2CCN(C(C)c3ccc4nsnc4c3)CC2)s1 (racemic) [Example 123, N-(5-(4-(1-(benzo[c][1,2,5]thiadiazol-5-yl)ethyl)piperazin-1-yl)-1,3,4-thiadiazol-2-yl)acetamide]",< 5e-08
8,CC(=O)Nc1nnc(N2CCN(C(C)c3ccc4cc(Cl)cnc4c3)CC2)s1 (racemic) [Example 124],1e-06 to 1e-05
9,"CC(=O)Nc1cnc(N2CCN(C(C)c3ccc4cc(Cl)cnc4c3)CC2)nc1 (racemic) [Example 125, N-(2-(4-(1-(3-chloroquinolin-7-yl)ethyl)piperazin-1-yl)pyrimidin-5-yl)acetamide]",1e-06 to 1e-05
10,"CC(=O)Nc1cnc(N2CCN(C(C)c3ccc4c(c3)OCCCO4)CC2)nc1 (racemic) [Example 126, N-(2-(4-(1-(3,4-dihydro-2H-benzo[b][1,4]dioxepin-7-yl)ethyl)piperazin-1-yl)pyrimidin-5-yl)acetamide]",2e-07 to 1e-06
11,"CC(=O)Nc1cnc(N2CCN(C(C)c3cccc4cccnc34)CC2)nc1 (racemic) [Example 127, N-(2-(4-(1-(quinolin-8-yl)ethyl)piperazin-1-yl)pyrimidin-5-yl)acetamide]",1e-06 to 1e-05
12,"CC(=O)Nc1nnc(N2CCN(C(C)c3ccc4c(c3)OCC4)CC2)s1 (racemic) [Example 128, N-(5-(4-(1-(2,3-dihydrobenzofuran-6-yl)ethyl)piperazin-1-yl)-1,3,4-thiadiazol-2-yl)acetamide]",< 5e-08
13,"CC(=O)Nc1cnc(N2CCN(C(C)c3ccc4c(c3)OCC4)CC2)nc1 (racemic) [Example 129, N-(2-(4-(1-(2,3-dihydrobenzofuran-6-yl)ethyl)piperazin-1-yl)pyrimidin-5-yl)acetamide]",< 5e-08
14,"CC(c1ccc2c(c1)OCO2)N1CCN(c2nc3ccccc3s2)CC1 (racemic) [Example 130, 2-(4-(1-(benzo[d][1,3]dioxol-5-yl)ethyl)piperazin-1-yl)benzo[d]thiazole]",2e-07 to 1e-06
15,"CC(c1ccc2nccnc2c1)N1CCN(c2nc3ccccc3s2)CC1 (racemic) [Example 135, 2-(4-(1-(quinoxalin-6-yl)ethyl)piperazin-1-yl)benzo[d]thiazole]",1e-06 to 1e-05
16,"CC(c1ccc2c(c1)OCO2)N1CCN(c2nc3c(s2)C(=O)NCC3)CC1 (racemic) [Example 148, 2-(4-(1-(benzo[d][1,3]dioxol-5-yl)ethyl)piperazin-1-yl)-6,7-dihydrothiazolo[5,4-c]pyridin-4(5H)-one]",5e-08 to 2e-07
17,"CC(c1ccc2nccnc2c1)N1CCN(c2ccc(C(F)(F)F)cn2)CC1 (racemic) [Example 165, 6-(1-(4-(5-(trifluoromethyl)pyridin-2-yl)piperazin-1-yl)ethyl)quinoxaline]",2e-07 to 1e-06

# Same assay, conditions: measured according to Example B01
row,Compound,OGA inhibitor activity (in words)
1,"CC(=O)Nc1cnc(N2CCN(C(C)c3ccc4scnc4c3)CC2)nc1 (racemic) [Example 116, N-(2-(4-(1-(benzo[d]thiazol-5-yl)ethyl)piperazin-1-yl)pyrimidin-5-yl)acetamide]",very potent OGA inhibitors
2,"CC(=O)Nc1nnc(N2CCN(C(C)c3ccc4c(c3)OCC4)CC2)s1 (racemic) [Example 128, N-(5-(4-(1-(2,3-dihydrobenzofuran-6-yl)ethyl)piperazin-1-yl)-1,3,4-thiadiazol-2-yl)acetamide]",very potent OGA inhibitors
3,"CC(=O)Nc1cnc(N2CCN(C(C)c3ccc4c(c3)OCC4)CC2)nc1 (racemic) [Example 129, N-(2-(4-(1-(2,3-dihydrobenzofuran-6-yl)ethyl)piperazin-1-yl)pyrimidin-5-yl)acetamide]",very potent OGA inhibitors
4,"CC(c1ccc2c(c1)OCCO2)N1CCN(c2ncccn2)CC1 (single isomer, unassigned) [Example 34]",very potent OGA inhibitors
5,"CNC(=O)c1csc(N2CCN(C(C)c3ccc4c(c3)OCO4)CC2)n1 (single isomer, unassigned) [Example 56]",very potent OGA inhibitors
